{"source": "patent US20230255953A1", "about": "“USE OF ROLUPERIDONE IN PREVENTING RELAPSE IN SCHIZOPHRENIA PATIENTS” (Minerva Neurosciences, Inc., priority 2022, published 2023)", "test_system": "patients with negative symptoms of schizophrenia", "assay": "Study #2 (MIN-101C07): CGI-S and CGI-I", "format": "in vivo, human", "details": "Week 12 DB, ITT", "description": "The CGI-S is a clinician-rated scale that is designed to rate the severity of the patient's illness at the time of assessment, including knowledge of the patient's history, psychosocial circumstances, symptoms, behavior, and the impact of the symptoms on the patient's ability to function relative to the clinician's past experience with patients who have the same diagnosis and similar improvement with treatment. Considering total clinical experience, a patient is assessed on severity of mental illness at the time of rating, where 1=normal (not at all ill); 2=borderline mentally ill; 3=mildly ill; 4=moderately ill; 5=markedly ill; 6=severely ill; or 7=extremely ill.\nThe CGI-S and CGI-I were assessed at the timepoints described in Table 7. The CGI-S and CGI-I were exploratory endpoints in Studies MIN-101C03 and MIN-101C07.\nStudy #2 (also referred to as “MIN101C07”) was a Phase 3, randomized, DB, placebo-controlled, parallel-group 12-week study to evaluate the efficacy and safety of Roluperidone in patients ≥18 years to ≤55 years with negative symptoms of schizophrenia, followed by a 40-week OL extension. The study consisted of a pretreatment screening period of up to 28 days (including an antipsychotic medication washout period), a 12-week, DB, placebo-controlled period, and a 40-week OL period. Eligible patients (with moderate to severe negative symptoms of schizophrenia and stable positive symptoms but without severe symptoms of suspiciousness, agitation, hostility, uncooperativeness, or poor impulse control) were randomized 1:1:1 to receive Roluperidone 32 mg QD, Roluperidone 64 mg QD (GR01/B formulation, see U.S. Pat. No. 11,464,744), or placebo, orally, for 12 weeks. […] During the 40-week OL treatment extension, patients who were initially randomized to Roluperidone 32 mg or 64 mg continued treatment with the same dose, while patients who were initially randomized to placebo crossed over to Roluperidone 32 mg or 64 mg in a 1:1 ratio."}
{"substance": "1H-Isoindol-1-one,2-[ [1-[2-(4-fluorophenyl)-2-oxoethyl]-4-piperidinyl]methyl]-2,3-dihydro-, hydrochloride, hydrate (1:1:2) [Roluperidone]", "values": [{"measurement": "Change from Baseline LS Mean: Clinical Global Impression of Severity", "setting": "32 mg QD", "result": "−0.4"}, {"measurement": "Clinical Global Impression of Improvement, LS Mean (observed data, MMRM)", "setting": "32 mg QD", "result": 3.4}, {"measurement": "Effect Size (Cohen's d) vs Placebo: Clinical Global Impression of Improvement", "setting": "32 mg QD", "result": "−0.12"}, {"measurement": "Effect Size (Cohen's d) vs Placebo: Clinical Global Impression of Severity", "setting": "32 mg QD", "result": 0.12}, {"measurement": "Change from Baseline LS Mean: Clinical Global Impression of Severity", "setting": "64 mg QD", "result": "−0.5"}, {"measurement": "Clinical Global Impression of Improvement, LS Mean (observed data, MMRM)", "setting": "64 mg QD", "result": 3.3}, {"measurement": "Effect Size (Cohen's d) vs Placebo: Clinical Global Impression of Improvement", "setting": "64 mg QD", "result": 0.02}, {"measurement": "Effect Size (Cohen's d) vs Placebo: Clinical Global Impression of Severity", "setting": "64 mg QD", "result": 0.24}]}
